Here are results for 13 compounds from PMC4640224, “Phosphorylation of a splice variant of collapsin response mediator protein 2 in the nucleus of tumour cells links cyclin dependent kinase-5 to oncogenesis” (BMC Cancer, 2015).

Data set [1] concerns CMGC protein kinase family. Description: Peptide phosphorylation by several members of the CMGC kinase family (selectivity). The format is biochemical. As to conditions: 50 μM peptide, 2 mUnits of each kinase, 30 min, Fig. 1d. As for the experimental part: (§1) Specific activity (pmol/min) was determined for all protein kinases by incubating known amounts of kinase (0.01-1 μg) with the generic substrate myelin basic protein (MBP, 0.3 mg/ml final) in kinase buffer (25 mM MOPS pH 7.5, 0.05 % (v/v) Brij-35, 0.25 mM EDTA, 5 % (v/v) glycerol) plus 10 mM MgCl2, and 100 μM [γ-32P] ATP (approx 0.5 × 10^6 CPM/nmol) as previously described. Peptide kinase assays were performed with 2mUnits of each kinase as above, except MBP was replaced with the peptide at the concentration given in figure legends. One unit of activity of each protein kinase was calculated as 1 nmole of phosphate transferred/min.
(§2) Fig. 1 In vitro analysis of primary sequence determinants for p35/CDK5 and p25/CDK5. a The contribution of C-terminal Arg/Lys residues to recognition and phosphorylation by each CDK5 complex was assessed by incubating the peptides at the indicated concentrations with 2 m units of each CDK5 complex for 20 mins and measuring phosphate transferred to each peptide. b Each CDK5 complex was incubated for 20 mins with 100 μM of the indicated peptides representing the primary sequence of the 4 classes of CDK5 substrates. The phosphorylated residue is underlined. c To assess the contribution of specific residues ±2 positions from the target residue a further 4 peptides (at 100 μM) were incubated with 2mUnits of each CDK5 complex for 30 mins. The residue changed from the parent sequence (peptide 1.0) is in italics in each case. *indicates p < 0.05 compared to peptide 1.0. d The rate of phosphorylation of the indicated peptides by several members of the CMGC family of kinases was compared by incubating each peptide (at 50 μM) with 2 m units (as determined against the generic substrate MBP) of each kinase for 30 mins and phosphate transfer measured. In all figures the data is presented as the average of at least two different experiments performed in duplicate ± the SEM, and is given as total picomoles transferred during the assay (a) or pmoles transferred/min (b-d)

The target in data set [2] is T1, p35/CDK5 (Homo sapiens, UniProt Q00535+Q15078).
T1 construct: purchased Millipore UK Ltd, Herts, UK
T1 sequence (Q00535 whole entry): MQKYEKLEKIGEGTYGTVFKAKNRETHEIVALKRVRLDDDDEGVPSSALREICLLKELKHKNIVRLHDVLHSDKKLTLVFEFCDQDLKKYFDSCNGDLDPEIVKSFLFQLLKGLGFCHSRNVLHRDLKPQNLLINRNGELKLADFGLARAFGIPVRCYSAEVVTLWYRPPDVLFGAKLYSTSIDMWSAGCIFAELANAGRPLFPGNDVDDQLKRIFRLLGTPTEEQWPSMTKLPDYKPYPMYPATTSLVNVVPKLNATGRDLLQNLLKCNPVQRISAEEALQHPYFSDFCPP
T1 sequence (Q15078 whole entry partner): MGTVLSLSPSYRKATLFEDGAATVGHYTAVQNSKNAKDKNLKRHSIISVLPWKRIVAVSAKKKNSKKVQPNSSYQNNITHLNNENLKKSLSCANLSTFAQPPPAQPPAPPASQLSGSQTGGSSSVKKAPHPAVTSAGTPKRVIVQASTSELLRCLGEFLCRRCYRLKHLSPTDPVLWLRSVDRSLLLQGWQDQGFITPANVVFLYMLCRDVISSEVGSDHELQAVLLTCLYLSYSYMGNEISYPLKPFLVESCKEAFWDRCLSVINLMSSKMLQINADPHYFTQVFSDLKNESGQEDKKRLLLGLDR
The data set can be described thus: Peptide kinase assay with p35/CDK5. As to conditions: 100 μM peptide; for Rate of phosphorylation compared with related peptides, in words: 1.0 versus 1.1 and 1.2, 1.4 versus 1.3; for Phosphorylation of substrate class peptides, in words: 20 min, Fig. 1b. It is filed as biochemical. The method, then:
as §1, §2

Data set [3] concerns PICTAIRE
The data set can be described thus: Peptide kinase assay with […]. It is filed as biochemical. As to conditions: 50 μM peptide, 2 mUnits kinase, 30 min, Fig. 1d. The method, then: as §1
Fig. 1 In vitro analysis of primary sequence determinants for p35/CDK5 and p25/CDK5. a The contribution of C-terminal Arg/Lys residues to recognition and phosphorylation by each CDK5 complex was assessed by incubating the peptides at the indicated concentrations with 2 m units of each CDK5 complex for 20 mins and measuring phosphate transferred to each peptide. b Each CDK5 complex was incubated for 20 mins with 100 μM of the indicated peptides representing the primary sequence of the 4 classes of CDK5 substrates. The phosphorylated residue is underlined. c To assess the contribution of specific residues ±2 positions from the target residue a further 4 peptides (at 100 μM) were incubated with 2mUnits of each CDK5 complex for 30 mins. […]

For data set [4], the target named is T2, p25/CDK5 (Homo sapiens, UniProt Q00535+Q15078).
T2 construct: purchased Millipore UK Ltd, Herts, UK
T2 sequence (Q00535 whole entry): as the sequence (Q00535 whole entry) above
T2 sequence (Q15078 99-307 partner limits assumed): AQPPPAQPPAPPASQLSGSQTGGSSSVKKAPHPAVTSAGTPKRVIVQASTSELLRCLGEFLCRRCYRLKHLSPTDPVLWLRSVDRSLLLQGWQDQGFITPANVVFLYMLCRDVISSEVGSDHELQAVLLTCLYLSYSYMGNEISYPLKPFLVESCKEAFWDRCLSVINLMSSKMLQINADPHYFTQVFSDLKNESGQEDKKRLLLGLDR
Description: Peptide kinase assay with p25/CDK5. It is filed as biochemical. As to conditions: 100 μM peptide; for Rate of phosphorylation compared with related peptides, in words: 1.0 versus 1.1 and 1.2, 1.4 versus 1.3; for Phosphorylation of substrate class peptides, in words: 20 min, Fig. 1b. The method, then:
as §1, §2

The subject of data set [5] is CDK5. Also on record: method as in PMID 19075597. Conditions: application of carboplatin; cited from earlier work.
The test system of data set [6] is CDK5 substrate phosphorylation in primary cortical neurons. Description: Immunofluorescence of CDK5 substrate phosphorylation in primary cortical neurons. It is filed as cell-based, rat. Conditions: 10 μM inhibitor, 3 h, neurons 6 days in vitro, Fig. 3a. The method, then: Embryonic primary cortical neurons were isolated from Sprague–Dawley rats at day 18 gestation. Briefly, following dissection, cortex was digested in 0.25 % trypsin in Hank’s balanced salt solution at 37 °C for 20 min. Cells were manually dissociated by trituration using a fire-polished Pasteur pipette and plated onto 0.01 % poly-l-lysine-coated coverslips at a density of 2–5 × 10^6 cells per 6 cm well, then incubated at 37 °C with 5 % CO2 in Neurobasal medium (Gibco) containing 2 % (vol/vol) B27 serum replacement (Invitrogen), penicillin (Sigma; 100 units/ml), streptomycin (Sigma; 100 μg/ml), and 1 % (vol/vol) L-glutamine (Sigma). HeLa and tumour cell lines were maintained in DMEM supplemented with 4.5 g/L glucose, 10 % (vol/vol) FCS, 1 % (vol/vol) penicillin (100 units/ml)/streptomycin (100 μg/ml) at 37 °C in 5 % CO2. […]
Fig. 3 Imaging of CDK5 substrate phosphorylaiton in primary cells. […] Phosphospecific antibodies were detected by Cy-3 bound 2ry antibodies (red) and nuclei were counter-stained with the DNA-binding dye DAPI (blue). […]

The target of data set [7] is T2, p25/CDK5. The format is biochemical. Conditions: inhibitor 10 μM, 30 min pre-incubation, GST-tau 0.5 μM, 2 mUnits kinase, Fig. 2b. As for the experimental part: (§3) Recombinant protein substrates were incubated with 2mUnits of each CMGC kinase as for MBP above for the times and at the concentrations given in figure legends. Reactions were terminated by the addition of SDS-PAGE loading buffer and heating to 70 °C for 15 mins. Aliquots were subjected to SDS-PAGE, stained with Coomassie Brilliant Blue (CBR-250), the gels were dried and radiolabeled bands visualized by autoradiography. Quantification of nmoles of phosphate incorporated was obtained by excising the stained protein band from the gel and counting in scintillation fluid.
(§4) Recombinant protein substrates (0.5 μM final concentration) were incubated with 2mUnits of each CDK5 complex and MgCl2 and [γ-32P] ATP (approx 0.5x10^6 CPM/nmole) for 30 mins. Reactions were terminated by the addition of SDS-PAGE loading buffer and heating to 70 °C. […] Data is representative of at least three different experiments

Data set [8] has as its target T1, p35/CDK5. It is filed as biochemical. As to conditions: inhibitor 10 μM, 30 min pre-incubation, GST-tau 0.5 μM, 2 mUnits kinase, Fig. 2b. The method, then: as §3, §4
The test system of data set [9] is CDK5 substrate phosphorylation in primary cortical neurons. Description: Immunohistochemistry of CDK5 substrate phosphorylation in paraffin-embedded primary neurons. The format is cell-based, rat. Conditions: 10 μM inhibitor, 3 h, formaldehyde fixed, Fig. 3b.
Description: Sections of formalin-fixed, paraffin embedded tissue were cut at a thickness of 4 μm, collected onto Polysine-coated microscope slides (VWR International) and dried overnight at 37 °C. Sections were dewaxed in Histoclear, rinsed in alcohol and endogenous peroxidase was quenched with 0.5 % hydrogen peroxide (100 volumes) in methanol at room temperature for 35 min. After washing in water, antigen retrieval was performed by boiling sections in 10 mM citrate buffer, pH 6.0 for 15 min in a microwave. After cooling, sections were rinsed in PBS and blocked with 5 % normal serum in PBS containing 5 % (v/v) avidin (Vector Laboratories, Peterborough, UK) for 30 min at room temperature. Sections were washed in PBS and incubated with primary antibody in 5 % normal serum in PBS containing 5 % (v/v) biotin at 4 °C overnight. After washing in PBS, sections were then incubated with biotinylated secondary antibody (1:250) (Vector Laboratories) for 30 min at room temperature, followed by streptavidin complexed with biotinylated peroxidase (Vectastain ABC kit; Vector Laboratories) at room temperature for 30 min. […] Cell nuclei were counterstained with haematoxylin (Sigma), dehydrated through graded alcohols, cleared in HistoClear and mounted in DPX. Images were taken using a Spot Insight QE digital camera or slides were digitally scanned (x40) using an Aperio ScanScope XT.
For data set [10], the target named is T1, p35/CDK5. Description: Phosphorylation kinetics of recombinant protein substrates by p35/Cdk5. As to conditions: initial rate, varying substrate concentrations, Mg[γ-32P]ATP, 10 min, 30 °C, Lineweaver-Burk, ND = not determinable, not phosphorylated to a significant level; for Vmax: at least two experiments in duplicate. It is filed as biochemical. As for the experimental part: as §3

Data set [11] deals with T2, p25/CDK5. The data set can be described thus: Phosphorylation kinetics of recombinant protein substrates by p25/Cdk5. The format is biochemical. Conditions: initial rate, varying substrate concentrations, Mg[γ-32P]ATP, 10 min, 30 °C, Lineweaver-Burk, ND = not determinable, not phosphorylated to a significant level; for Vmax: at least two experiments in duplicate. The method, then:
as §3

The test system of data set [12] is MDA-MB321. Conditions: MDA-MB321 breast cancer cell line; cited from earlier work. An excerpt:
(§5) Similarly, CDK5 levels decrease in gastric cancer and its nuclear accumulation suppresses gastric tumorigenesis.

Data set [13] relates to MCF-7. As to conditions: MCF-7 breast cancer cell line; cited from earlier work.
Excerpt: as §5

Regarding KKASAPKSPRKPRS [peptide 1.0], the “Selectivity of peptide substrate among CMGC kinases, in words” value (“Selectivity” for short) in data set [1] is “highly selective for CDK5”. The “Rate of phosphorylation compared with related peptides, in words” value in data set [2] (2 mUnits, 30 min, Fig. 1c) is listed as “twice the rate”; in data set [4] (2 mUnits, 30 min, Fig. 1c) it was “twice the rate”. The “Phosphorylation of substrate class peptides, in words” value in data set [2] and in [4] was “much better substrates” throughout. The “Phosphorylation by PICTAIRE relative to a matched amount of MBP kinase activity of CDK5” value in [3] was < 80%.
In the case of `N.N.O=C([O-])C1(C(=O)[O-])CCC1.[Pt+2]` [carboplatin], in data set [5], the “Effect on CDK5 activity” value was “induces CDK5 activation”.
In the case of KKASAPVSPRKPRS [peptide 1.2], the “Selectivity” value in [1] is on record as “CDK5 is the most effective kinase”.
Consider KKASAPVSPPRDRK [Class 2], for which the “Phosphorylation of substrate class peptides, in words” value in data set [2] and in [4] was “relatively poor substrate” throughout.
Take KKASAPKSPARPRS [peptide 1.1]: the “Selectivity” value in data set [1] is given as “CDK5 is the most effective kinase”.
Regarding `CC(C)[C@H](CO)Nc1nc(Nc2cccc(Cl)c2)c2ncn(C(C)C)c2n1` [purvalanol A], in [6], the “CRMP2 phosphorylation at Ser522 (immunofluorescence)” value was “reduces” and the “CRMP4 phosphorylation at Ser522 (immunofluorescence)” value is listed as “does not alter”. Further, the “Effect of CDK inhibitor on tau phosphorylation in vitro” value in data set [7] is recorded as “completely blocked”. In addition, in [8], the “Effect of CDK inhibitor on tau phosphorylation in vitro” value was “completely blocked”. Further, in [9], the “Intensity of staining and number of cells stained for phospho-Ser522 of CRMP2 (immunohistochemistry)” value is on record as “reduced”; the “Tau phosphorylation at Ser235 (immunohistochemistry)” value is “not significantly affected”; the “Tau phosphorylation at Thr205 (immunohistochemistry)” value was “not significantly affected”.
For KKASAPKSPPKPRS [peptide 1.3], the “Reduction of rate of phosphorylation compared to peptide 1.0 and 1.1” value in [2] (2 mUnits, 30 min, Fig. 1c) is given as > 90%; in data set [4] (2 mUnits, 30 min, Fig. 1c), > 90%. In addition, in data set [3], the “Phosphorylation by PICTAIRE compared with CDK5, in words” value is given as “to a greater extent than CDK5”.
As a reminder, the Km is the concentration of substrate that gives half-maximal velocity. Usually Vmax stands for the rate approached at saturating substrate. Take “CRMP1: recombinant collapsin response mediator protein 1, proposed CDK5 substrate”: in data set [10], the Km came to 1.26 µM and the Vmax is given as 0.735 pmol/min. In addition, in [11], the Michaelis-Menten constant (Km) was found to be 1.46 µM and the Vmax worked out at 0.191 pmol/min.
KKPKSRRSPPSIPT [Class 3]: the “Phosphorylation of substrate class peptides, in words” value in data set [2] and in data set [4] was “not phosphorylated” throughout.
Regarding `CC[C@H](CO)Nc1nc(NCc2ccccc2)c2ncn(C(C)C)c2n1` [roscovitine], the Effect on proliferation result in [12] and in [13] was “enhances the proliferation” in each case.
In the case of “CRMP4: recombinant collapsin response mediator protein 4, proposed CDK5 substrate”, the Km came to 0.401 µM in data set [10] and 0.252 µM in data set [11]. The Vmax was determined as 0.665 pmol/min in data set [10] and 0.155 pmol/min in data set [11].
For the compound KKASAAKSPPKPRS [peptide 1.4], the “Rate of phosphorylation compared with related peptides, in words” value is “did not restore phosphorylation” in [2] (2 mUnits, 30 min, Fig. 1c) and “did not restore phosphorylation” in data set [4] (2 mUnits, 30 min, Fig. 1c).
Turning to KKENNVLSPLPSQA [Class 4], the “Phosphorylation of substrate class peptides, in words” value in [2] and in data set [4] was “not phosphorylated” in each case.
